Test system: ELEIN (Eleusine indica)
Test: Post-emergence application in field trials (Example A)
Assay type: in vivo
Details: A-1 25, B-6 252 g ai/ha, water 400 l/ha
[1] = Table 5.1, ELEIN height 5-20 cm, 21 DAT
[2] = Table 5.6, ELEIN growth stage 14-15, height 9-14 cm, 28 DAT

| Structure (SMILES) | % herbicidal activity [1] | % herbicidal activity [2] |
| --- | --- | --- |
| CCOC(=O)COc1ccccc1Oc1nc(-n2c(=O)cc(C(F)(F)F)n(C)c2=O)c(F)cc1Cl [A-1, ethyl 2-[2-[[3-chloro-5-fluoro-6-[3-methyl-2,6-dioxo-4-(trifluoromethyl)pyrimidin-1-yl]-2-pyridyl]oxy]phenoxy]acetate] | 57% | 91% |
| CP(=O)(O)CC[C@H](N)C(=O)O.N [B-6, glufosinate-P-ammonium] | 0% | 40% |
